Reference: publication PMC7013731, “Elucidating the Structural Basis of the Intracellular pH Sensing Mechanism of TASK-2 K2P Channels” (International Journal of Molecular Sciences, 2020)

Tests used:
[1] = target: T1, TASK-2 (Mus musculus, UniProt Q9JK62); test: whole-cell patch clamp, transfected HEK-293 cells; assay type: cell-based
T1 construct: gene Kcnk5; full-length TASK-2 plasmid transiently expressed in HEK-293 cells with separate GFP marker plasmid; homodimer
T1 sequence (Q9JK62 1-502): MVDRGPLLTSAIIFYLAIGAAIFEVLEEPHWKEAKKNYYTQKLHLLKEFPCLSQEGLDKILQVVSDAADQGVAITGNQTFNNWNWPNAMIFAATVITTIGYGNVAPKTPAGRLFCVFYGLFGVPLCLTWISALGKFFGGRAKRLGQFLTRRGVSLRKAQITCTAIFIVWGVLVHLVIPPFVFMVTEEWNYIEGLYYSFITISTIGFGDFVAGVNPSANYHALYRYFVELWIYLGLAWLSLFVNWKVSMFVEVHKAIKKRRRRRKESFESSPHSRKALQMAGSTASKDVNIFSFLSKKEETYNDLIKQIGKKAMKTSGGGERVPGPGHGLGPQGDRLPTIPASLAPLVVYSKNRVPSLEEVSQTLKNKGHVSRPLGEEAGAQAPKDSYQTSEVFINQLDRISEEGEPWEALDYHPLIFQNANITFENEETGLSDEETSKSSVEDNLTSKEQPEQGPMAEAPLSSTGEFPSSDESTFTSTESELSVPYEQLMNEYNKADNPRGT

[2] = target: Lys245 (UniProt position 245, LFVNWKVSMFV); test: electrophysiology; details: wild-type channel, gating by intracellular pH (pHi); cited from earlier work

| Compound | IC50 [1] [µM] | pKa [2] |
| --- | --- | --- |
| NCCC(Oc1ccc(C(F)(F)F)cc1)c1ccccc1 (racemic) [norfluoxetine] | 17 ± 5 |  |
| TASK-2 (K2P5.1, TWIK-related acid-sensitive K+ channel 2) (Mus musculus (inferred from GenBank AF319542; species not stated in the article)) |  | ~8.0 |
